Experimental findings from patent US20240409510A1 (priority 2022, published 2024) are described below.

For the assay, the target named is SARS-CoV-2 3CLpro (Severe acute respiratory syndrome coronavirus 2, UniProt P0DTD1). The class given is biochemical. Particulars: pH 7.5.
In the case of `CCCN(CCC)[C@@H]1C[C@@H](C(=O)NC(C[C@@H]2CCNC2=O)C(=O)C(=O)c2ccccc2)N(C(=O)[C@@H](NC(=O)C(F)(F)F)C(C)(C)C)C1` (stereo partly shown) [Compound 1], the “Activity of SARS-CoV-2 MPro inhibitors” value is on record as “A+++ (key: A >100 μM; A+ <50 μM; A++ <10 μM; A+++ <1 μM)”.

Regarding `CC(C)O[C@@H]1C[C@@H](C(=O)NC(C[C@@H]2CCNC2=O)C(=O)C(=O)c2ccccc2)N(C(=O)[C@@H](NC(=O)C(F)(F)F)C(C)(C)C)C1` (stereo partly shown) [Compound 2], the “Activity of SARS-CoV-2 MPro inhibitors” value was “A+++ (key: A >100 μM; A+ <50 μM; A++ <10 μM; A+++ <1 μM)”.

For the molecule `CC(C)(C)C(NC(=O)C(F)(F)F)C(=O)N1C[C@H]2[C@@H](C1C(=O)N[C@@H](C[C@@H]1CCNC1=O)C(=O)C(=O)c1ccccc1)C2(C)C` (stereo partly shown) [Compound 3], the “Activity of SARS-CoV-2 MPro inhibitors” value is “A+++ (key: A >100 μM; A+ <50 μM; A++ <10 μM; A+++ <1 μM)”. In the case of `CC(C)(C)[C@H](NC(=O)C(Cl)(Cl)Cl)C(=O)N1C[C@H]2[C@@H]([C@H]1C(=O)NC(C[C@@H]1CCNC1=O)C(=O)C(=O)c1ccccc1)C2(C)C` (stereo partly shown) [Compound 4], the “Activity of SARS-CoV-2 MPro inhibitors” value was “A++ (key: A >100 μM; A+ <50 μM; A++ <10 μM; A+++ <1 μM)”. For `Cc1ccc(C(=O)C(=O)[C@H](C[C@@H]2CCNC2=O)NC(=O)C2[C@@H]3[C@H](CN2C(=O)C(NC(=O)C(F)(F)F)C(C)(C)C)C3(C)C)cc1` (stereo partly shown) [Compound 5], the “Activity of SARS-CoV-2 MPro inhibitors” value is given as “A+++ (key: A >100 μM; A+ <50 μM; A++ <10 μM; A+++ <1 μM)”. Regarding `CC(C)(C)OC(=O)NC(C(=O)N1C[C@H]2[C@@H](C1C(=O)N[C@@H](C[C@@H]1CCNC1=O)C(=O)C(=O)c1ccc(F)cc1)C2(C)C)C(C)(C)C` (stereo partly shown) [Compound 6], the “Activity of SARS-CoV-2 MPro inhibitors” value is “A+++ (key: A >100 μM; A+ <50 μM; A++ <10 μM; A+++ <1 μM)”. Turning to `CC(C)(C)C(NC(=O)C(F)(F)F)C(=O)N1C[C@H]2[C@@H](C1C(=O)N[C@@H](C[C@@H]1CCNC1=O)C(=O)C(=O)c1ccc(F)cc1)C2(C)C` (stereo partly shown) [Compound 7], the “Activity of SARS-CoV-2 MPro inhibitors” value is “A+++ (key: A >100 μM; A+ <50 μM; A++ <10 μM; A+++ <1 μM)”. To `COc1ccc(C(=O)C(=O)[C@H](C[C@@H]2CCNC2=O)NC(=O)C2[C@@H]3[C@H](CN2C(=O)C(NC(=O)C(F)(F)F)C(C)(C)C)C3(C)C)cc1` (stereo partly shown) [Compound 8] belongs “A+++ (key: A >100 μM; A+ <50 μM; A++ <10 μM; A+++ <1 μM)”. For the molecule `CC(C)(C)C(NC(=O)C(Cl)(Cl)Cl)C(=O)N1C[C@H]2[C@@H](C1C(=O)N[C@@H](C[C@@H]1CCNC1=O)C(=O)C(=O)c1ccccc1)C2(C)C` (stereo partly shown) [Compound 9], the “Activity of SARS-CoV-2 MPro inhibitors” value is “A (key: A >100 μM; A+ <50 μM; A++ <10 μM; A+++ <1 μM)”. For `Cc1cc(C)cc(C(=O)C(=O)[C@H](C[C@@H]2CCNC2=O)NC(=O)C2[C@@H]3[C@H](CN2C(=O)C(NC(=O)C(F)(F)F)C(C)(C)C)C3(C)C)c1` (stereo partly shown) [Compound 10], the “Activity of SARS-CoV-2 MPro inhibitors” value is recorded as “A+++ (key: A >100 μM; A+ <50 μM; A++ <10 μM; A+++ <1 μM)”.

For the molecule `CCCC(=O)C(=O)[C@H](C[C@@H]1CCNC1=O)NC(=O)C1[C@@H]2[C@H](CN1C(=O)C(NC(=O)C(F)(F)F)C(C)(C)C)C2(C)C` (stereo partly shown) [Compound 11], the “Activity of SARS-CoV-2 MPro inhibitors” value was “A+++ (key: A >100 μM; A+ <50 μM; A++ <10 μM; A+++ <1 μM)”. Turning to `CC(C)(C)[C@H](NC(=O)C(F)(F)F)C(=O)N1Cc2ccccc2C[C@H]1C(=O)N[C@@H](C[C@@H]1CCNC1=O)C(=O)C(=O)c1ccccc1` [Compound 12], the “Activity of SARS-CoV-2 MPro inhibitors” value is recorded as “A+++ (key: A >100 μM; A+ <50 μM; A++ <10 μM; A+++ <1 μM)”. Take `CC(C)(C)[C@H](NC(=O)C(F)(F)F)C(=O)N1Cc2ccccc2C[C@H]1C(=O)NC(CC1CCCNC1=O)C(=O)C(=O)c1ccccc1` (stereo partly shown) [Compound 13]: the “Activity of SARS-CoV-2 MPro inhibitors” value is given as “A+ (key: A >100 μM; A+ <50 μM; A++ <10 μM; A+++ <1 μM)”. To `CCCC(=O)C(=O)[C@H](C[C@@H]1CCNC1=O)NC(=O)[C@@H]1Cc2ccccc2CN1C(=O)[C@@H](NC(=O)C(F)(F)F)C(C)(C)C` [Compound 14] belongs “A++ (key: A >100 μM; A+ <50 μM; A++ <10 μM; A+++ <1 μM)”; to `COc1ccccc1C(=O)C(=O)[C@H](C[C@@H]1CCNC1=O)NC(=O)C1[C@@H]2[C@H](CN1C(=O)C(NC(=O)C(F)(F)F)C(C)(C)C)C2(C)C` (stereo partly shown) [Compound 15], “A+++ (key: A >100 μM; A+ <50 μM; A++ <10 μM; A+++ <1 μM)”.

On to `CCCC(=O)C(=O)[C@H](C[C@@H]1CCNC1=O)NC(=O)[C@@H]1Cc2ccccc2CN1C(=O)[C@@H](NC(=O)OCc1ccncc1)C(C)(C)C` [Compound 16], for which the “Activity of SARS-CoV-2 MPro inhibitors” value is given as “A+++ (key: A >100 μM; A+ <50 μM; A++ <10 μM; A+++ <1 μM)”. Next, `CC(C)(C)[C@H](NC(=O)CCc1ccccc1)C(=O)N1Cc2ccccc2C[C@H]1C(=O)N[C@@H](C[C@@H]1CCNC1=O)C(=O)C(=O)c1ccccc1` [Compound 17]: “A+++ (key: A >100 μM; A+ <50 μM; A++ <10 μM; A+++ <1 μM)”. Turning to `CC(C)(C)[C@H](NC(=O)/C=C/c1ccccc1)C(=O)N1Cc2ccccc2C[C@H]1C(=O)N[C@@H](C[C@@H]1CCNC1=O)C(=O)C(=O)c1ccccc1` [Compound 18], the “Activity of SARS-CoV-2 MPro inhibitors” value is “A+++ (key: A >100 μM; A+ <50 μM; A++ <10 μM; A+++ <1 μM)”. On to `CC(C)(C)C(NC(=O)C(F)(F)F)C(=O)N1C[C@H]2[C@@H](C1C(=O)N[C@@H](C[C@@H]1CCNC1=O)C(=O)C(=O)c1ccncc1)C2(C)C` (stereo partly shown) [Compound 20], for which the “Activity of SARS-CoV-2 MPro inhibitors” value was “A++ (key: A >100 μM; A+ <50 μM; A++ <10 μM; A+++ <1 μM)”.
